Assays:
Calu6 NSCLC cells = experiment: Caspase 3/7 activation, Calu6; assay type: cell-based; set-up: key: −: lack of caspase 3/7 activation after 24 hours of compound treatment; ++: moderate; +++: strong; ++++: very strong; conditions: Calu6, KRAS^Q61K; BRG1 WT, LKB1 WT, CDKN2A WT; 24 hours
Experimental: (§1) Inhibition of cell growth and induction of apoptosis were determined by CellTiter-Glo® and caspase 3/7 activation assays after 72 and 24 hours of treatment, respectively.

H1792 NSCLC cells = experiment: Caspase 3/7 activation, H1792; assay type: cell-based; set-up: key: −: lack of caspase 3/7 activation after 24 hours of compound treatment; ++: moderate; +++: strong; ++++: very strong; conditions: H1792, KRAS^G12c; BRG1 WT, LKB1 WT, CDKN2A WT; 24 hours
Experimental: as §1

H2347 NSCLC cells = experiment: Caspase 3/7 activation, H2347; assay type: cell-based; set-up: key: −: lack of caspase 3/7 activation after 24 hours of compound treatment; ++: moderate; +++: strong; ++++: very strong; conditions: H2347, KRAS^Q61K; BRG1 WT, LKB1 WT, CDKN2A WT; 24 hours
Experimental: as §1

H2122 NSCLC cells = experiment: Caspase 3/7 activation, H2122; assay type: cell-based; set-up: key: −: lack of caspase 3/7 activation after 24 hours of compound treatment; ++: moderate; +++: strong; ++++: very strong; conditions: H2122, KRAS^G12c; BRG1 WT, LKB1 MUT, CDKN2A MUT; 24 hours
Experimental: as §1

H727 NSCLC cells = experiment: Caspase 3/7 activation, H727; assay type: cell-based; set-up: key: −: lack of caspase 3/7 activation after 24 hours of compound treatment; ++: moderate; +++: strong; ++++: very strong; conditions: H727, KRAS^G12V; BRG1 WT, LKB1 WT, CDKN2A WT; 24 hours
Experimental: as §1

H358 NSCLC cells = experiment: Caspase 3/7 activation, H358; assay type: cell-based; set-up: key: −: lack of caspase 3/7 activation after 24 hours of compound treatment; ++: moderate; +++: strong; ++++: very strong; conditions: H358, KRAS^G12c; BRG1 WT, LKB1 WT, CDKN2A WT; 24 hours
Experimental: as §1

H1573 NSCLC cells = experiment: Caspase 3/7 activation, H1573; assay type: cell-based; set-up: key: −: lack of caspase 3/7 activation after 24 hours of compound treatment; ++: moderate; +++: strong; ++++: very strong; conditions: H1573, KRAS^G12A; BRG1 MUT, LKB1 WT, CDKN2A WT; 24 hours
Experimental: (§2) A panel of 24 non-small cell lung carcinoma (NSCLC) cell lines harboring RAS mutations was analyzed for genomic alterations, gene expression profiling and protein phosphorylation in MAPK and PI3K pathways. Inhibition of cell growth and induction of apoptosis were determined by CellTiter-Glo® and caspase 3/7 activation assays after 72 and 24 hours of treatment, respectively.

H157 NSCLC cells = experiment: Caspase 3/7 activation, H157; assay type: cell-based; set-up: key: −: lack of caspase 3/7 activation after 24 hours of compound treatment; ++: moderate; +++: strong; ++++: very strong; conditions: H157, KRAS^G12R; BRG1 MUT, LKB1 MUT, CDKN2A WT; 24 hours
Experimental: as §2

HOP62 NSCLC cells = experiment: Caspase 3/7 activation, HOP62; assay type: cell-based; set-up: key: −: lack of caspase 3/7 activation after 24 hours of compound treatment; ++: moderate; +++: strong; ++++: very strong; conditions: HOP62, KRAS^G12c; BRG1 WT, LKB1 WT, CDKN2A MUT; 24 hours
Experimental: as §2

H23 NSCLC cells = experiment: Caspase 3/7 activation, H23; assay type: cell-based; set-up: key: −: lack of caspase 3/7 activation after 24 hours of compound treatment; ++: moderate; +++: strong; ++++: very strong; conditions: H23, KRAS^G12c; BRG1 MUT, LKB1 MUT, CDKN2A WT; 24 hours
Experimental: as §1

A427 NSCLC cells = experiment: Caspase 3/7 activation, A427; assay type: cell-based; set-up: key: −: lack of caspase 3/7 activation after 24 hours of compound treatment; ++: moderate; +++: strong; ++++: very strong; conditions: A427, KRAS^G12D; BRG1 MUT, LKB1 MUT, CDKN2A WT; 24 hours
Experimental: as §1

A549 NSCLC cells = experiment: Caspase 3/7 activation, A549; assay type: cell-based; set-up: key: −: lack of caspase 3/7 activation after 24 hours of compound treatment; ++: moderate; +++: strong; ++++: very strong; conditions: A549, KRAS^G12S; BRG1 MUT, LKB1 MUT, CDKN2A MUT; 24 hours
Experimental: as §1

H1299 NSCLC cells = experiment: Caspase 3/7 activation, H1299; assay type: cell-based; set-up: key: −: lack of caspase 3/7 activation after 24 hours of compound treatment; ++: moderate; +++: strong; ++++: very strong; conditions: H1299, KRAS^Q61H; BRG1 MUT, LKB1 WT, CDKN2A WT; 24 hours
Experimental: as §1

H1155 NSCLC cells = experiment: Caspase 3/7 activation, H1155; assay type: cell-based; set-up: key: −: lack of caspase 3/7 activation after 24 hours of compound treatment; ++: moderate; +++: strong; ++++: very strong; conditions: H1155, KRAS^Q61H; BRG1 WT, LKB1 WT, CDKN2A WT; 24 hours
Experimental: as §2

H1355 NSCLC cells = experiment: Caspase 3/7 activation, H1355; assay type: cell-based; set-up: key: −: lack of caspase 3/7 activation after 24 hours of compound treatment; ++: moderate; +++: strong; ++++: very strong; conditions: H1355, KRAS^G13C; BRG1 NULL, LKB1 MUT, CDKN2A WT; 24 hours
Experimental: as §2

COR-L23 NSCLC cells = experiment: Caspase 3/7 activation, COR-L23; assay type: cell-based; set-up: key: −: lack of caspase 3/7 activation after 24 hours of compound treatment; ++: moderate; +++: strong; ++++: very strong; conditions: COR-L23, KRAS^G12V; BRG1 WT, LKB1 WT, CDKN2A WT; 24 hours
Experimental: as §2

SW900 NSCLC cells = experiment: Caspase 3/7 activation, SW900; assay type: cell-based; set-up: key: −: lack of caspase 3/7 activation after 24 hours of compound treatment; ++: moderate; +++: strong; ++++: very strong; conditions: SW900, KRAS^G12V; BRG1 WT, LKB1 WT, CDKN2A MUT; 24 hours
Experimental: as §1

H441 NSCLC cells = experiment: Caspase 3/7 activation, H441; assay type: cell-based; set-up: key: −: lack of caspase 3/7 activation after 24 hours of compound treatment; ++: moderate; +++: strong; ++++: very strong; conditions: H441, KRAS^G12V; BRG1 WT, LKB1 WT, CDKN2A WT; 24 hours
Experimental: as §1

[1] = system: RAS-mutant NSCLC cell lines; experiment: Inhibition of cell growth (CellTiter-Glo) in panel of RAS-mutant NSCLC cell lines; conditions: Ras mut NSCLC cell lines; CellTiter-Glo, 72 hours of treatment
Experimental: Cells are plated in 384-well plates at 500 cells/well in culture media appropriate for each cell type, supplemented with 10% FBS and 1% penicillin/streptomycin, and incubated overnight at 37° C., 5% CO2. Cells are treated in a grid manner with dilution of Compound A^2 (20 dilutions, including no compound, of 2-fold dilutions starting from 1-20 μM depending of compound) from left to right on 384-well plate and also treated with Compound B^2 (20 dilutions, including no compound, of 2-fold dilutions starting from 1-20 μM depending of compound) from top to bottom on 384-well plate and incubated as above for a further 72 hours. In some instances compounds are added in a staggered manner and incubation time can be extended up to 7 days. Cell growth is measured using CellTiter-Glo® reagent according to the manufacturer's protocol and signals are read on a PerkinElmer EnVision™ reader set for luminescence mode with a 0.5-second read.
Results are expressed as a percentage of the t=0 value and plotted against compound(s) concentration. The t=0 value is normalized to 100% and represents the number of cells present at the time of compound addition. The cellular response is determined for each compound and/or compound combination using a 4- or 6-parameter curve fit of cell viability against concentration using the IDBS XLfit plug-in for Microsoft Excel software and determining the concentration required for 50% inhibition of cell growth (gIC50). Background correction is made by subtraction of values from wells containing no cells.
as §2

SMILES	Apoptosis Response (caspase 3/7 activation) (Calu6 NSCLC cells)	Apoptosis Response (caspase 3/7 activation) (H1792 NSCLC cells)	Apoptosis Response (caspase 3/7 activation) (H2347 NSCLC cells)	Apoptosis Response (caspase 3/7 activation) (H2122 NSCLC cells)	Apoptosis Response (caspase 3/7 activation) (H727 NSCLC cells)	Apoptosis Response (caspase 3/7 activation) (H358 NSCLC cells)	Apoptosis Response (caspase 3/7 activation) (H1573 NSCLC cells)	Apoptosis Response (caspase 3/7 activation) (H157 NSCLC cells)	Apoptosis Response (caspase 3/7 activation) (HOP62 NSCLC cells)	Apoptosis Response (caspase 3/7 activation) (H23 NSCLC cells)	Apoptosis Response (caspase 3/7 activation) (A427 NSCLC cells)	Apoptosis Response (caspase 3/7 activation) (A549 NSCLC cells)	Apoptosis Response (caspase 3/7 activation) (H1299 NSCLC cells)	Apoptosis Response (caspase 3/7 activation) (H1155 NSCLC cells)	Apoptosis Response (caspase 3/7 activation) (H1355 NSCLC cells)	Apoptosis Response (caspase 3/7 activation) (COR-L23 NSCLC cells)	Apoptosis Response (caspase 3/7 activation) (SW900 NSCLC cells)	Apoptosis Response (caspase 3/7 activation) (H441 NSCLC cells)	Response Rate (sensitivity/total lines tested), Cell growth inhibition [1]
CC(=O)O[C@@]12CO[C@@H]1C[C@H](O)[C@@]1(C)C(=O)[C@H](O)C3=C(C)[C@@H](OC(=O)[C@H](O)[C@@H](NC(=O)OC(C)(C)C)c4ccccc4)C[C@@](O)([C@@H](OC(=O)c4ccccc4)[C@H]21)C3(C)C [Docataxel, (2R,3S)—N-carboxy-3-phenylisoserine,N-tert-butyl ester, 13-ester with 5β-20-epoxy-1,2α,4,7β,10β,13α-hexahydroxytax-11-en-9-one 4-acetate 2-benzoate, trihydrate]	++	+++	−	−	−	++	++	++	++	+++	++	−	−	−	−	−	−	−	88% (21/24)
CC(=O)Nc1cccc(-n2c(=O)n(C3CC3)c(=O)c3c(Nc4ccc(I)cc4F)n(C)c(=O)c(C)c32)c1 [Compound A, N-{3-[3-cyclopropyl-5-(2-fluoro-4-iodo-phenylamino)-6,8-dimethyl-2,4,7-trioxo-3,4,6,7-tetrahydro-2H-pyrido[4,3-d]pyrimidin-1-yl]phenyl}acetamide]	++	++	++	++	++	−	−	−	−	−	−	−	−	−	−	−	−	−	38% (9/24)

Source: patent US20130231346A1, “METHODS OF TREATING CANCER” (GLAXOSMITHKLINE INTELLECTUAL PROPERTY (NO.2) LIMITED, priority 2010, published 2013)
